# Source: US10590393B2, “Retinoic acid enhanced human stem cell derived blood brain barrier model” (Wisconsin Alumni Research Foundation, priority 2012, dated 2020)
# Tested on: differentiating IMR90-4 hiPSCs
# Experiment: Adherens junction and tight junction protein expression (immunocytochemistry, flow cytometry, western blot)
# Type: cell-based, human
# Method: Cells were washed twice with phosphate-buffered saline (PBS; Sigma) and fixed with either 100% ice-cold methanol for 10 min or 4% paraformaldehyde for 15 min. Cells were then washed twice with PBS and blocked in PBS containing 40% goat serum (40% PBSG; Sigma) at 20° C. for 30 min. In some instances, 0.1% Triton X-100 (TX-100) was included during this step to permeabilize the cells. Cells were then washed once with PBS and incubated with primary antibodies against occludin (1:100; Invitrogen), claudin-5 (1:100; Invitrogen), VE-cadherin (1:25; Santa Cruz Biotechnology), von Willebrand Factor (vWF; 1:100; Dako), p-glycoprotein (clone F4; 1:25; Lab Vision), breast cancer resistance protein (BCRP, clone 5D3; 1:25; Millipore), multidrug resistance protein 1 (MRP1, clone QCRL-1; 1:100; Millipore), in 40% PBSG at 4° C. overnight. Cells were washed three times with PBS and incubated with secondary antibodies (goat anti-rabbit Texas Red and goat anti-mouse Alexa Fluor 488; 1:500; Invitrogen) for 1 h at 20° C. […] For quantitative analysis of BMEC integrity, the percentage of cells expressing frayed tight junctions was counted using BMECs immunolabeled for occludin. […] A minimum of four separate frames and 1000 total cells were counted to obtain a percentage of frayed tight junctions.
# Cells were washed once with PBS and dissociated with ACCUTASE for 5 min, then spun down and fixed in 2% paraformaldehyde for 15 min or 100% methanol for 10 min at 20° C. […] After another two washes with PBS containing 5% FBS, cells were analyzed on a FACSCALIBER flow cytometer and the IgG control was used to quantify positive labeling. Elevated GLUT-1 expression was quantified using a GLUT-1/forward scatter plot referenced to baseline GLUT-1 expression measured at day 4 of UM culture.
# Cells were washed once with PBS and lysed with RIPA buffer (Pierce, Rockford, Ill., USA). Protein concentration was quantified via BCA assay (Pierce) and proteins were then resolved by SDS-PAGE on 4-20% Tris-Glycine gradient gels (Invitrogen). […] Protein levels were detected via a SUPERSIGNAL West Pico Chemiluminescent Substrate (Pierce).
compound,measurement,setting,value
"CC1=C(/C=C/C(C)=C/C=C/C(C)=C/C(=O)O)C(C)(C)CCC1 [RA, retinoic acid]",decrease of the level of claudin-5 expression,RA during 2 days of EC medium treatment,1.7 fold
same,increase of the level of occludin expression,"RA during 2 days of EC medium treatment, across biological replicates",1.8 to 2.9 fold
same,"positive expression for VE-cadherin, claudin-5, and occludin",purified RA-treated BMECs,95-98%
